Assay results reported in ChEMBL document CHEMBL3751774, “Synthesis and anti-tubercular activity of conformationally-constrained and bisquinoline analogs of TMC207” (Medchemcomm, 2015).
≈ marks a conversion by molar mass, not a printed value.

How the values were obtained:
[1] = test system: Mycobacterium tuberculosis; assay: Antitubercular activity against multi drug resistant Mycobacterium tuberculosis isolate 1 assessed as growth inhibition after 4 weeks; assay type: functional; conditions: isolate 1, 672 h
[2] = test system: Mycobacterium tuberculosis; assay: Antitubercular activity against multi drug resistant Mycobacterium tuberculosis isolate 2 assessed as growth inhibition after 4 weeks; assay type: functional; conditions: isolate 2, 672 h

| Structure (SMILES) | MIC [1] [µM] | MIC [2] [µM] |
| --- | --- | --- |
| COc1nc2ccccc2cc1C(c1cc2ccccc2nc1OC)C(O)(CCN(C)C)c1ccc2ccccc2c1 (stereo not drawn) | 3.12 (≈ 1.74 µg/mL) | 3.12 (≈ 1.74 µg/mL) |
| COc1nc2ccccc2cc1C(c1cc2ccccc2nc1OC)C(O)(CCN(C)C)c1cccc(Br)c1 (stereo not drawn) | 3.12 (≈ 1.83 µg/mL) | 3.12 (≈ 1.83 µg/mL) |
| C=CCCOc1nc2ccccc2cc1C(c1cc2ccccc2nc1OCCC=C)C(O)(CCN(C)C)c1ccc(Br)cc1 (stereo not drawn) | 3.12 (≈ 2.08 µg/mL) | 3.12 (≈ 2.08 µg/mL) |
| COc1nc2ccccc2cc1C(c1cc2ccccc2nc1OC)C(O)(CCN(C)C)c1ccccc1 (stereo not drawn) | 3.12 (≈ 1.58 µg/mL) | 3.12 (≈ 1.58 µg/mL) |
